# Measured values as given in patent publication US9586986B2, “Substituted 7-deazapurine ribonucleosides for therapeutic uses” (Institute of Organic Chemistry and Biochemistry ASCR, v.v.i., priority 2014, dated 2017).
# Where two headings read alike, the source gives them in different places.
# Legend:
# Format in all cases: cell-based
# HCT116 = assay: Cytostatic/cytotoxic MTT assay, HCT116; conditions: Homo sapiens, read-out: MTT, IC50 HCT116
# Excerpt: (§1) Unless otherwise stated, all cells were purchased from the […] (ATCC). The CCRF-CEM line is derived from T lymphoblastic leukemia, evincing high chemosenzitivity, K562 represent cells from a […] patient sample with bcr-abl translocation, HCT116 is colorectal tumor cell line and its p53 gene knock-down counterpart (HCT116p53−/−, Horizon Discovery, UK) is a model of human cancers with p53 inactivation frequently associated with poor prognosis, A549 cell line is lung adenocarcinoma. The daunorubicin resistant subline of CCRF-CEM cells (CEM-DNR bulk) and paclitaxel resistant subline K562-TAX were selected in our laboratory by cultivation of maternal cell lines in increasing concentrations of daunorubicine or paclitaxel, respectively. The CEM-DNR cells overexpress mrp-1 and mdr-1 genes, while K562-TAX cells overexpress mdr-1 only. Both proteins belong to the family of ABC transporters and are involved in the primary and/or acquired multidrug resistance phenomenon (ref.: Gottesman, M. M.; Fojo, T.; Bates, S. E. Multidrug resistance in cancer: role of ATP-dependent transporters. Nat. Rev. Cancer. 2002, 2, 48-58. (b) Noskova, V.; Dzubak, P.; Kuzmina, G.; Ludkova, A.; Stehlik, D.; Trojanec, R.; Janostakova, A.; Korinkova, G.; Mihal, V.; Hajduch, M. In vitro chemoresistance profile and expression/function of MDR associated proteins in resistant cell lines derived from CCRF-CEM, K562, A549 and MDA MB 231 parental cells. Neoplasma 2002, 49, 418-425). Non-malignant MRC-5 and BJ cells, derived from normal human fibroblasts, were used as controls. The cells were maintained in Nunc/Corning 80 cm^2 plastic tissue culture flasks and cultured in cell culture medium (DMEM/RPMI 1640 with 5 g/L glucose, 2 mM glutamine, 100 U/mL penicillin, 100 µg/mL streptomycin, 10% fetal calf serum, and NaHCO3). Cell suspensions were prepared and diluted according to the particular cell type and the expected target cell density (25,000-30,000 cells/well based on cell growth characteristics). Cells were added by pipette (80 L) into 96-well microtiter plates. Inoculates were allowed a pre-incubation period of 24 h at 37° C. and 5% CO2 for stabilization. Four-fold dilutions, in 20-L aliquots, of the intended test concentration were added to the microtiter plate walls at time zero. All test compound concentrations were examined in duplicate. Incubation of the cells with the test compounds lasted for 72 h at 37° C., in a 5% CO2 atmosphere at 100% humidity. At the end of the incubation period, the cells were assayed using MTT. Aliquots (10 L) of the MTT stock solution (5 mg/ml) were pipetted into each well and incubated for another 1-4 h. After this incubation period the formazan produced was dissolved by addition of 100 µL/well of 10% aq SDS (pH 5.5), followed by a further incubation at 37° C. overnight. The optical density was measured at 540 nm. The IC50 value, the drug concentration inhibiting the cell growth by 50%, was calculated from appropriate dose-response curves.
# (§2) In vitro cytotoxic/cytostatic activity final nucleosides 1-5 was initially evaluated against […] cell lines derived from human solid tumors including lung (A549 cells) and colon (HCT116 and HCT116p53−/−) carcinomas, as well as leukemia cell lines (CCRF-CEM, CEM-DNR, K562 and K562-TAX) and, for comparison, non-malignant BJ and MRC-5 fibroblasts. Concentrations inhibiting the cell growth by 50% (IC50) were determined using a quantitative metabolic staining with 3-(4,5-dimethylthiazol-2-yl)-2,5-diphenyltetrazolium bromide (MTT) (ref.: Denizot, F.; Lang, R. Rapid colorimetric assay for cell growth and survival: Modifications to the tetrazolium dye procedure giving improved sensitivity and reliability. J. Immunol. Meth. 1986, 89, 271-277) following a 3-day treatment.
# Multidrug resistance is a major therapeutic problem in cancer chemotherapy. […]
# BJ = assay: Cytostatic/cytotoxic MTT assay, BJ fibroblasts; conditions: Homo sapiens, 72 h, read-out: MTT, IC50 BJ
# Excerpt: as §1, §2
# HepG2 = assay: XTT cytotoxicity assay, HepG2; conditions: Homo sapiens, read-out: XTT, IC50 HepG2
# Protocol: (§3) HL-60, Hela S3 and HepG2 cell lines (ATCC) were grown in RPMI-1640 or DMEM medium supplemented with 10% fetal calf serum, […] of streptomycin, 200 U/mL of penicillin G and 4 mM glutamine in a humidified atmosphere containing 5% CO2 at 37° C. Sensitivity of these cell lines to the synthesized compounds was assessed with the use of XTT cell proliferation kit II (Roche Diagnostics GmbH, Mannheim, Germany) according to the manufacturer's instructions. Briefly, cells were seeded in a 96-well plate at a density of 10,000 cells per well (90 μL). After 24 h, 10 μL of the tested compounds were added to the culture media at desired concentration range and incubated for 72 h. After that 50 μL of the XTT solution was added (1 mg/mL XTT+0.383 mg/mL N-methyl dibenzopyrazine methyl sulfate). The absorbance was recorded at 495 nm following a 2 h-incubation with the dye. IC50 values were determined by non-linear regression method using GraphPad Prism version 5.00 for Windows (GraphPad Software, La Jolla, Calif., USA).
# HL60 = assay: XTT cytotoxicity assay, HL-60; conditions: Homo sapiens, read-out: XTT, IC50 HL60
# Protocol: as §3
# (§4) In addition, the anti-proliferative effect was tested against a human T-lymphoblastic leukemia line CCRF-CEM, promyelocytic leukemia HL-60 and cervical carcinoma HeLa S3 growing in liquid suspension. Cell viability was determined following a 3-day incubation using 2,3-bis-(2-methoxy-4-nitro-5-sulfophenyl)-2H-tetrazolium-5-carboxanilide (XTT) assay (ref.: Scudiero, D. A.; Shoemaker, R. H.; Paull, K. D.; Monks, A.; Tierney, S.; Nofziger, T. H.; Currens, M. J.; Seniff, D.; Boyd M. R. Evaluation of a Soluble Tetrazolium/Formazan Assay for Cell Growth and Drug Sensitivity in Culture Using Human and Other Tumor Cell Lines. Cancer Res. 1988, 48, 4827-4833).
# HeLa S3 = assay: XTT cytotoxicity assay, HeLa S3; conditions: Homo sapiens, read-out: XTT, IC50 HeLa S3
# Protocol: as §3, §4
Compound,"IC50 (HCT116; HCT-116, 72 h incubation) [µM]",IC50 (BJ; non-malignant fibroblasts) [µM],"IC50 (HepG2; HepG2, 72 h incubation) [µM]","IC50 (HL60; HL-60, 72 h incubation) [µM]","IC50 (HeLa S3; HeLa S3, 72 h incubation) [µM]","IC50 (HCT116; HCT-116, 72 h) [µM]",IC50 (BJ) [µM],"IC50 (HepG2; HepG2, 72 h) [µM]","IC50 (HL60; HL-60, 72 h) [µM]","IC50 (HeLa S3; HeLa S3, 72 h) [µM]"
"CN(C)c1ncnc2c1c(-c1ccsc1)cn2[C@@H]1O[C@H](CO)[C@@H](O)[C@H]1O [Compound 4d, 4-Dimethylamino-7-(β-D-ribofuranosyl)-5-(thiophen-3-yl)-7H-pyrrolo[2,3-d]pyrimidine]",> 20,> 100,> 20,1.92,> 15,–,–,–,–,–
"CN(C)c1ncnc2c1c(-c1cc3ccccc3o1)cn2[C@@H]1O[C@H](CO)[C@@H](O)[C@H]1O [Compound 4f, 5-(Benzofuran-2-yl)-4-dimethylamino-7-(β-D-ribofuranosyl)-7H-pyrrolo[2,3-d]pyrimidine]",> 20,> 100,> 20,> 20,> 20,–,–,–,–,–
"CN(C)c1ncnc2c1c(-c1cccs1)cn2[C@@H]1O[C@H](CO)[C@@H](O)[C@H]1O [Compound 4c, 4-Dimethylamino-7-(β-D-ribofuranosyl)-5-(thiophen-2-yl)-7H-pyrrolo[2,3-d]pyrimidine]",> 20,> 100,> 20,11.8,> 20,–,–,–,–,–
"CNc1ncnc2c1c(-c1ccco1)cn2[C@@H]1O[C@H](CO)[C@@H](O)[C@H]1O [Compound 3a, 5-(Furan-2-yl)-4-methylamino-7-(β-D-ribofuranosyl)-7H-pyrrolo[2,3-d]pyrimidine]",0.23,5.04,0.85,0.62,5,–,–,–,–,–
"Cc1ncnc2c1c(-c1cc3ccccc3o1)cn2[C@@H]1O[C@H](CO)[C@@H](O)[C@H]1O [Compound 5f, 5-(Benzofuran-2-yl)-4-methyl-7-(β-D-ribofuranosyl)-7H-pyrrolo[2,3-d]pyrimidine]",> 20,93.9,> 20,> 20,> 20,–,–,–,–,–
"C#Cc1cn([C@@H]2O[C@H](CO)[C@@H](O)[C@H]2O)c2ncnc(SC)c12 [Compound 2g, 5-Ethynyl-4-methylsulfanyl-7-(β-D-ribofuranosyl)-7H-pyrrolo[2,3-d]pyrimidine]",0.03,68.6,> 15,0.05,0.11,–,–,–,–,–
"CNc1ncnc2c1ccn2[C@@H]1O[C@H](CO)[C@@H](O)[C@H]1O [RC3, reference compound]",> 20,91.4,> 20,12.8,> 20,–,–,–,–,–
"C#Cc1cn([C@@H]2O[C@H](CO)[C@@H](O)[C@H]2O)c2ncnc(N(C)C)c12 [Compound 4g, 4-Dimethylamino-5-ethynyl-7-(β-D-ribofuranosyl)-7H-pyrrolo[2,3-d]pyrimidine]",0.18,0.41,1.32,0.29,0.81,–,–,–,–,–
"Cc1ncnc2c1c(-c1ccccc1)cn2[C@@H]1O[C@H](CO)[C@@H](O)[C@H]1O [Compound 5e, 4-Methyl-5-phenyl-7-(β-D-ribofuranosyl)-7H-pyrrolo[2,3-d]pyrimidine]",> 100,> 100,> 20,> 20,> 20,–,–,–,–,–
"COc1ncnc2c1c(-c1cc3ccccc3o1)cn2[C@@H]1O[C@H](CO)[C@@H](O)[C@H]1O [Compound 1f, 5-(Benzofuran-2-yl)-4-methoxy-7-(β-D-ribofuranosyl)-7H-pyrrolo[2,3-d]pyrimidine]",13.8,22.4,> 20,4.47,9.24,–,–,–,–,–
"CSc1ncnc2c1c(-c1ccco1)cn2[C@@H]1O[C@H](CO)[C@@H](O)[C@H]1O [Compound 2a, 5-(Furan-2-yl)-4-methylsulfanyl-7-(β-D-ribofuranosyl)-7H-pyrrolo[2,3-d]pyrimidine]",0.02,0.26,0.22,0.12,0.54,–,–,–,–,–
"CN(C)c1ncnc2c1ccn2[C@@H]1O[C@H](CO)[C@@H](O)[C@H]1O [RC4, reference compound]",18.4,5.3,1.81,0.87,10.6,–,–,–,–,–
"C#Cc1cn([C@@H]2O[C@H](CO)[C@@H](O)[C@H]2O)c2ncnc(OC)c12 [Compound 1g, 5-Ethynyl-4-methoxy-7-(β-D-ribofuranosyl)-7H-pyrrolo[2,3-d]pyrimidine]",4.06,98.4,12.7,0.19,1.73,–,–,–,–,–
"CN(C)c1ncnc2c1c(-c1ccco1)cn2[C@@H]1O[C@H](CO)[C@@H](O)[C@H]1O [Compound 4a, 4-Dimethylamino-5-(furan-2-yl)-7-(β-D-ribofuranosyl)-7H-pyrrolo[2,3-d]pyrimidine]",0.25,> 100,> 15,0.22,1.19,–,–,–,–,–
"CN(C)c1ncnc2c1c(-c1ccccc1)cn2[C@@H]1O[C@H](CO)[C@@H](O)[C@H]1O [Compound 4e, 4-Dimethylamino-5-phenyl-7-(β-D-ribofuranosyl)-7H-pyrrolo[2,3-d]pyrimidine]",> 20,> 100,> 20,> 20,> 20,–,–,–,–,–
"Cc1ncnc2c1ccn2[C@@H]1O[C@H](CO)[C@@H](O)[C@H]1O [RC5, 4-Methyl-7-(β-D-ribofuranosyl)-7H-pyrrolo[2,3-d]pyrimidine, reference compound]",–,–,–,–,–,0.03,0.07,0.06,0.02,0.02
